The target of assay [1] is T1, reuptake of dopamine (DA) in synaptosomes (Rattus norvegicus, UniProt P23977).
T1 construct: in synaptosomes as described in WO 97/16451; from tissue
In words: In vitro inhibition of dopamine reuptake in synaptosomes. In kind it is biochemical. As for the experimental part:
(§1) A number of compounds were tested for their ability to Inhibit the reuptake of the monoamine neurotransmitters dopamine (DA) noradrenaline(NA) and serotonin (5-HT) in synaptosomes as described in WO 97/16451.
(§2) The test values are given as IC50 (the concentration (μM) of the test substance which inhibits the specific binding of ^3H-DA, ^3H-NA, or 3H-5-HT by 50%).

Assay [2] addresses T2, reuptake of serotonin (5-HT) in synaptosomes (Rattus norvegicus, UniProt P31652).
T2 construct: in synaptosomes as described in WO 97/16451; from tissue
In words: In vitro inhibition of serotonin reuptake in synaptosomes. In kind it is biochemical. The method, then:
as §1, §2

We go through three compounds from patent US7250425B2, “8-aza-bicyclo[3.2.1]octane derivatives and their use as monoamine neurotransmitter re-uptake inhibitors” (priority 2003, dated 2007).

Structures can show the parent of a compound that is named as a salt.

T1 sequence (P23977 whole entry): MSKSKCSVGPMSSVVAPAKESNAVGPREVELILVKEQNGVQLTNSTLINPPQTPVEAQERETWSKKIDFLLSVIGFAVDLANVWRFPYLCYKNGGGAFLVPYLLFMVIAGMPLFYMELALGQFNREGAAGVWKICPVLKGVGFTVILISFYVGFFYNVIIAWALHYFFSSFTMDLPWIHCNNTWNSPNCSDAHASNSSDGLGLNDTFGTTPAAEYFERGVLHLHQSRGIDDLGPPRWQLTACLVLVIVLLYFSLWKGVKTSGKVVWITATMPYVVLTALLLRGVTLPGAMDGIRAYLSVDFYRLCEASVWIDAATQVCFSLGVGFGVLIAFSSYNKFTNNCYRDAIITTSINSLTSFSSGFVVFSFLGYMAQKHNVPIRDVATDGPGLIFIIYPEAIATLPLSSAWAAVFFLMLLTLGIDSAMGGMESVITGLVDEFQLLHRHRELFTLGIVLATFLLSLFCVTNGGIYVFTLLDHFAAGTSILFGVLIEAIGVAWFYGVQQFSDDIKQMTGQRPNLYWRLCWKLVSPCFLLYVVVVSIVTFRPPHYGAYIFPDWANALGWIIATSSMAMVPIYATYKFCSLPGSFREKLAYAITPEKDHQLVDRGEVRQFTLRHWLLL
T2 sequence (P31652 whole entry): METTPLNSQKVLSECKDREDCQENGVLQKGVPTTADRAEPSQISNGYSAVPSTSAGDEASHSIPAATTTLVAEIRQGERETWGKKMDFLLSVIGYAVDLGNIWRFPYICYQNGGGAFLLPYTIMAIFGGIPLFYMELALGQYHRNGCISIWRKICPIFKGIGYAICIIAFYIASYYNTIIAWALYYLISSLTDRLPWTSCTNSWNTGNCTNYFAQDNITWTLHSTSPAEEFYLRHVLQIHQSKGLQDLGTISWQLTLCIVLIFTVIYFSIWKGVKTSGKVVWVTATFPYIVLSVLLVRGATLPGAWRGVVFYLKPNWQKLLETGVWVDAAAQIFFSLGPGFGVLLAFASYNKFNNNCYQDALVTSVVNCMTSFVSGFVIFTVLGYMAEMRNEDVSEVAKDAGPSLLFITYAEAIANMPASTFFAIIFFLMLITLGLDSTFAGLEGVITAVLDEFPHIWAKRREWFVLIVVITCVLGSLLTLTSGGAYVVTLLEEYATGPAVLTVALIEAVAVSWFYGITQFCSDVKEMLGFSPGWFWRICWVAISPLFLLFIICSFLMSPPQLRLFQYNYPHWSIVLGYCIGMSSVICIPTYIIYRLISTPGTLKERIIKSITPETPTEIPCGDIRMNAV

As to `CN1C2CCC1[C@H](COc1cccc(Cl)c1Cl)[C@@H](c1cccc(Cl)c1)C2` (stereo partly drawn) [1st compound of method D, (2R,3S)-2-(2,3-Dichlorophenoxymethyl)-8-methyl-3-(3-chlorophenyl)-8-aza-bicyclo[3.2.1]octane fumaric acid salt], the figures for the IC50 in assay [1] and in assay [2] were 0.062 µM and 0.00072 µM, respectively.

As to `Clc1cccc(C2CC3CCC(N3)C2COc2cccc3ccccc23)c1` [2nd compound of method E, (2R,3S)-2-(1-naphthyloxymethyl)-8-H-3-(3-chlorophenyl)-8-aza-bicyclo[3.2.1]octane fumaric acid salt], the IC50 was determined as 0.088 µM in assay [1] and 0.013 µM in assay [2].

With `Clc1cccc(C2CC3CCC(N3)C2COc2cccc(Cl)c2Cl)c1` [1st compound of method E, (2R,3S)-2-(2,3-Dichlorophenoxymethyl)-8-H-3-(3-chlorophenyl)-8-aza-bicyclo[3.2.1]octane fumaric acid salt], the half-inhibitory concentration (IC50) was 0.1 µM in assay [1] and 0.0062 µM in assay [2].
